Measured values taken from ChEMBL document CHEMBL1212908, “Flavonoids in the poisonous plant Oxytropis falcata” (J Nat Prod, 2010).

Key:
[1] = system: Radical scavenging activity; assay: Antioxidant activity assessed as DPPH free radical scavenging activity after 30 mins; format: functional
HL-60 = assay: Cytotoxicity against human HL60 cells by MTT assay; format: functional, cell-based

Compound	IC20 [1]	IC50 (HL-60)
VITAMIN E	7.6 µM	
COc1ccc([C@@H]2COC3=CC(=O)CC[C@]3(O)C2)c(O)c1OC [OXYTROPISOFLAVAN B]	> 50 µM	> 50 µM
COc1ccc([C@@H]2COc3cc(O)c(C(c4ccc(O)cc4O)C(O)Cc4ccc(O)cc4)cc3C2)c(O)c1OC (some centres not stated) [OXYTROPISOFLAVAN A]	> 50 µM	> 50 µM
COc1c(O)cc2c(c1OC)O[C@H]1c3ccc(O)cc3OC[C@@H]21	3.8 µM	> 50 µM
